From publication PMC9500072, “Topical application of an irreversible small molecule inhibitor of lysyl oxidases ameliorates skin scarring and fibrosis” (Nature Communications, 2022) come the findings set out here.

The target of data set [1] is Bradykinin B2 (Homo sapiens, UniProt P30411). As to the kind of experiment: Eurofins panel 212620. The format is binding.
Data set [2] addresses Platelet Activating Factor (PAF) (Homo sapiens, UniProt P25105). As to the kind of experiment: Eurofins panel 265010. The format is binding.
The target in data set [3] is Dopamine D4.2 (Homo sapiens, UniProt P21917, DEL265-296). As to the kind of experiment: Eurofins panel 219900. It counts as binding.
Chain of Dopamine D4.2 (P21917 with tags, fused parts or gaps DEL265-296): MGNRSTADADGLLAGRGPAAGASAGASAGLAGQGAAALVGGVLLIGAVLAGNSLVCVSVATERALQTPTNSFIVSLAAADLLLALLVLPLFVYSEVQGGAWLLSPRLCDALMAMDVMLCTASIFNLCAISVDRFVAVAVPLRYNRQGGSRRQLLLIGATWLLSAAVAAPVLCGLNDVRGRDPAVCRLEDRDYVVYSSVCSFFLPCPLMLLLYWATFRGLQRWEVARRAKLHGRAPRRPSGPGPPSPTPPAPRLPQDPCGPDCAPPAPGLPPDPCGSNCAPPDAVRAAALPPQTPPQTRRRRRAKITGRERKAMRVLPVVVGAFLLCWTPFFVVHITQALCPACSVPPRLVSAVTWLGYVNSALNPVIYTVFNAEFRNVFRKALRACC
Data set [4] addresses Prostanoid EP4 (Homo sapiens, UniProt P35408). As to the kind of experiment: Eurofins panel 268420. The format is binding.
Data set [5] deals with primary scar fibroblasts. Description: Scar-in-a-jar collagen I immunofluorescence (deposition, coherency). It counts as cell-based, human. How it is done: Fibrillar collagen I deposition was measured using confocal image analysis (Fig. 4f–k). […] Furthermore, coherency analysis[18] was used to determine collagen alignment. This analysis specifically analyses the alignment of collagen fibers, with more alignment increasing the score and more random distribution provided a lower score. In scar tissue scores are higher as fibers are densely parallel aligned in contrast to normal skin[18].
An experimental ‘Scar-in-a-jar’ protocol developed by Chen and Raghunath[36] was followed for quantitation of collagen per cell and to measure the orientation of collagen under fibrotic conditions in vitro. […] The images then further analyzed for collagen coherency measurements using ‘Fiji is just image j’s’ (FIJI) orientation J application as previously reported[18],[37]. For quantitation of collagen per cell, an image of whole chamber slide was captured using fluorescence microscope (Nikon inverted microscope). The 488 nm green and Hoechst stained blue images were collected, and analyzed using NIS-Elements software (Nikon, Japan). The six ROIs were selected from each image and the binary thresholds were recorded for each corresponding image. […]

Data set [6] deals with Melatonin MT1 (Homo sapiens, UniProt P48039). As to the kind of experiment: Eurofins panel 251600. The format is binding.
Chain of Melatonin MT1 (P48039 whole entry): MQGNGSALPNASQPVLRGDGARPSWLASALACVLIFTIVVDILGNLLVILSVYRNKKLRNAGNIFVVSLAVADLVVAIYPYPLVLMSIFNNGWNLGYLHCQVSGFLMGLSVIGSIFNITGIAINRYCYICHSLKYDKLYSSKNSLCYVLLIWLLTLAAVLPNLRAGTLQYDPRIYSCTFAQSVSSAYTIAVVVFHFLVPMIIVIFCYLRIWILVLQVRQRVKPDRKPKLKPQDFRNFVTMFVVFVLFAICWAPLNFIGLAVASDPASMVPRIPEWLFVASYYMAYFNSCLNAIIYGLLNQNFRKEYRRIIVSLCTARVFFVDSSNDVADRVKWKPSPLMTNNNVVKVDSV
Data set [7] concerns Purinergic P2Y. Description: Eurofins panel 268810. It counts as binding, rat. Particulars: 10 µM.
Data set [8] can be described thus: LeadProfilingScreen, Eurofins CEREP Panlabs, 68 assays. It counts as binding. As to conditions: test concentration 10 µM.
In data set [9] the target is Neuropeptide Y Y1 (Homo sapiens, UniProt P25929). As to the kind of experiment: Eurofins panel 257010. The format is binding.
Chain of Neuropeptide Y Y1 (P25929 whole entry): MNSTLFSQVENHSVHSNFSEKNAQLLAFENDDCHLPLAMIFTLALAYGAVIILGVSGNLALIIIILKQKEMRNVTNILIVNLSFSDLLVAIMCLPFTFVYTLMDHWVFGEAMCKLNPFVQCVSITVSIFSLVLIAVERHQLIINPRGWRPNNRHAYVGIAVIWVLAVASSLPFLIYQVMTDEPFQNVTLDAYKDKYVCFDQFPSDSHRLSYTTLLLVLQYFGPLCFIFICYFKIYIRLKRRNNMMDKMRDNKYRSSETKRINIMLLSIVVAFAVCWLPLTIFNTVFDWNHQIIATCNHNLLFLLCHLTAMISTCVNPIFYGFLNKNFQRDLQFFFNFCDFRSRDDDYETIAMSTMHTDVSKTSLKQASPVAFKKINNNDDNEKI
A short description of data set [10]: Rat pharmacokinetic-pharmacodynamic model, skin concentration. It counts as in vivo. As to conditions: topical; for concentration at 24 h after the last dose: 24 h after last dose; for concentration at 24 h: 500 mg on 16 cm^2, 24 h. How it is done: PXS-6302 was formulated as an oil in water cream of different concentrations (0, 0.3, 1, 10%) and applied to a shaved area on the back of a rat (500 mg cream applied to 16 cm^2). After 24 h animals were sacrificed, the concentration of PXS-6302 in the skin was measured and the lysyl oxidase activity determined.
To investigate the effect of repeat dosing, cream at different concentrations (0, 0.5, 1, and 3% PXS-6302, 400 mg applied to 16 cm^2) was applied once daily for 5 consecutive days and 24 h after the last dose, animals were sacrificed and the skin concentration determined.
PXS-6302 was formulated as an oil in water cream of different concentrations (0, 0.3, 1, 10%) and applied to a shaved area on the back of an adult rat (500 mg cream applied to 16 cm^2 skin surface area). After 24 h animals were euthanased. For the detection of lysyl oxidase activity in the skin, epidermal and dermal layers of the skin were dissected, pre-cooled with liquid nitrogen and pulverized. Samples were washed by homogenization with ice-cold wash buffer (0.15 M NaCl, 50 mM sodium borate, pH 8.0 with 0.25 mM PMSF and 1 µL/mL bovine aprotinin as protease inhibitors) at 100 µL/mg, centrifuged at 10,000 × g for 10 min at 4 °C and supernatant discarded. After the final washing step, the pellet was resuspended in extraction buffer (6 M urea, 50 mM sodium borate, pH 8.2 with 0.25 mM PMSF and 1 µL/mL aprotinin as protease inhibitors) with ratio of buffer volume to tissue weight at 4:1. After a 3 h incubation at 4 °C, the mixture was diluted 1:2 with assay buffer containing 50 mM sodium borate (pH 8.2), centrifuged at 20,000 × g for 20 min at 4 °C. The collected supernatant was spiked with pargyline hydrochloride and mofegiline hydrochloride at final concentrations of 0.5 mM and 1 µM, respectively, to inhibit amine oxidases. Lysyl oxidase activity was measured as previously described. The concentration of PXS-6302 in the skin was also measured in the same samples using LCMSMS as described for Franz cell diffusion assay.

Data set [11] addresses Cannabinoid CB2 (Homo sapiens, UniProt P34972). Description: Eurofins panel 217100. It counts as binding.
Data set [12] addresses Nicotinic Acetylcholine α1β2, Cytisine (Homo sapiens, UniProt P17787+P43681). Description: Eurofins panel 299031. It counts as binding.

Chain of Prostanoid EP4 (P35408 whole entry): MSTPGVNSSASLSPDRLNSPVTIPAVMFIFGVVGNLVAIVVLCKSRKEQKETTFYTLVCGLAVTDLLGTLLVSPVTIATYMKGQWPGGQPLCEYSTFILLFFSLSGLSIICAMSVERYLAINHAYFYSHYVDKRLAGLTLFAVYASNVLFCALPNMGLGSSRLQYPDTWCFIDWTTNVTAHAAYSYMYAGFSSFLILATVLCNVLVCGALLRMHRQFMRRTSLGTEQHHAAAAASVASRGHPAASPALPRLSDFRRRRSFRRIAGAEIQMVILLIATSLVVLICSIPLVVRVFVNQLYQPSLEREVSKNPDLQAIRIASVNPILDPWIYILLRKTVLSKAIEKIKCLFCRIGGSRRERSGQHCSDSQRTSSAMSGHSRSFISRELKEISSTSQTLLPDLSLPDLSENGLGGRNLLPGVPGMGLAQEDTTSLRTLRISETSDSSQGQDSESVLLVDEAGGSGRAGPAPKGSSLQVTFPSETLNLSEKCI
Chain of Platelet Activating Factor (PAF) (P25105 whole entry): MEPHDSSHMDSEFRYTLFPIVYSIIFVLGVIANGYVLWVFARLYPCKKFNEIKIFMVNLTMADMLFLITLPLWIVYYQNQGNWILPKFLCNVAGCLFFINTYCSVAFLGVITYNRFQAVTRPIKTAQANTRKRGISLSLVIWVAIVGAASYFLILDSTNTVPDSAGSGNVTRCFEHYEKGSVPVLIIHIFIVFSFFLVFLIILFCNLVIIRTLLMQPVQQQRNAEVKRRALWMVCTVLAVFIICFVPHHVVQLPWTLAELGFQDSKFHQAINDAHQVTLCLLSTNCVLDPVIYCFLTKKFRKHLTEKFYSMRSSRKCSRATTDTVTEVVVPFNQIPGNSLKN
Chain of Nicotinic Acetylcholine α1β2, Cytisine (P43681 27-627): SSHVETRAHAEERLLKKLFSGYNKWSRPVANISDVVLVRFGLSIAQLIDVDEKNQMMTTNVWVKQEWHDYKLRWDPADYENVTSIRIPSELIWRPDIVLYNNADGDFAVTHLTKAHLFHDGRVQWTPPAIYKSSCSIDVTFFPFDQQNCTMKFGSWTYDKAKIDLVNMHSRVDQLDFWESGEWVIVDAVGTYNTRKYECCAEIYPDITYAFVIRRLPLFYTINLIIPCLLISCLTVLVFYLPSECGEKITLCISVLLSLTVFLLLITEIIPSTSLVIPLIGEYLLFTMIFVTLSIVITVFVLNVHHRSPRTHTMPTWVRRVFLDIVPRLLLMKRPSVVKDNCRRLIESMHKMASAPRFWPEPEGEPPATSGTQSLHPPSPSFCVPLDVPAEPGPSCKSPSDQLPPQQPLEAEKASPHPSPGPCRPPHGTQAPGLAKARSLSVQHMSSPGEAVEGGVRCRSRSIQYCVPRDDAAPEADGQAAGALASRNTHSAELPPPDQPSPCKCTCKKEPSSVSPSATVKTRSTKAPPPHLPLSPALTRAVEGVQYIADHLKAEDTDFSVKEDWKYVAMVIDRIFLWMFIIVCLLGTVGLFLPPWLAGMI
Chain of Nicotinic Acetylcholine α1β2, Cytisine (P17787 26-502): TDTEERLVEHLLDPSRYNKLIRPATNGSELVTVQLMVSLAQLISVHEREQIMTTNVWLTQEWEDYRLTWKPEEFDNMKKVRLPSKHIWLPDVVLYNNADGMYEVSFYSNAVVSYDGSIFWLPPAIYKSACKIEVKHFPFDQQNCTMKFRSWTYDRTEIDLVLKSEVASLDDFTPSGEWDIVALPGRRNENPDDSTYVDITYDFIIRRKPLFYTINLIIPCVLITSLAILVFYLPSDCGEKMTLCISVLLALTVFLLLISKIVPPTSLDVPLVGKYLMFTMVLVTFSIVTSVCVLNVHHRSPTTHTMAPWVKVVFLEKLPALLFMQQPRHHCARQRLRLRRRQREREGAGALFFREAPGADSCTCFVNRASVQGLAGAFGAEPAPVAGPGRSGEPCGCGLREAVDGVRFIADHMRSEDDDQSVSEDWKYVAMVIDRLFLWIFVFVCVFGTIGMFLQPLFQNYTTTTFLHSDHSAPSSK
Chain of Bradykinin B2 (P30411 whole entry): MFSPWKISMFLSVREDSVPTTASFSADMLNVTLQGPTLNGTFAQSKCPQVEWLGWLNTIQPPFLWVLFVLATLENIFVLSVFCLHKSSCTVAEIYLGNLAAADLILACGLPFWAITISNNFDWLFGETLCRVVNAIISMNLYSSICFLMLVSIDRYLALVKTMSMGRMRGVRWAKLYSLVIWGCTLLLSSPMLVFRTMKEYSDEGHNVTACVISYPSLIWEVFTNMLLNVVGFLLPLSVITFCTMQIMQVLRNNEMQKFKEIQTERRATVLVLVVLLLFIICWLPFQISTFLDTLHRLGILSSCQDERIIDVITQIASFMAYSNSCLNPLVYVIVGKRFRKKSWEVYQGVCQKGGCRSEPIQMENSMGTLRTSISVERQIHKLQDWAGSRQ
Chain of Cannabinoid CB2 (P34972 whole entry): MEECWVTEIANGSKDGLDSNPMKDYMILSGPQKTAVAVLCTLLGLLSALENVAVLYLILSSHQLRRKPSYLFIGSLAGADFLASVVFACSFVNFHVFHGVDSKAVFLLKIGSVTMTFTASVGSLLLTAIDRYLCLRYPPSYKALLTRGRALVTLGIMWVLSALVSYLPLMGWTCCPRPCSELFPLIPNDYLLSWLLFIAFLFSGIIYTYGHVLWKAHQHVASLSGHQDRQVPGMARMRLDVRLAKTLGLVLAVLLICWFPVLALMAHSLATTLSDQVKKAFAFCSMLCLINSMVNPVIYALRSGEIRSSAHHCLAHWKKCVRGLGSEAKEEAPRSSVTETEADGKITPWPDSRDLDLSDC

On to `NC/C=C(\F)CS(=O)(=O)c1ccccc1` [PXS-4787], for which the inhibition at 10 µM was 5% in [1]; -11% in [2]; 1% in data set [3]; -2% in data set [4]; -2% in [6]; 0% in data set [9]. Further, the “deposited fibrillar collagen I” value in [5] (10 µM vs control and 1 µM) is listed as “significantly reduced”. Further, in data set [5] (1 and 10 µM vs control), the “collagen I coherency” value is given as “significantly reduced coherency”. For the same molecule, the “% Inh.” value in data set [7] came out at 2%. Also, the “profile in broad panel of macromolecular targets” value in data set [8] is given as “clean”.
Consider `NC/C=C(\F)C(F)(F)S(=O)(=O)c1ccccc1` [PXS-6302], for which the concentration at 24 h after the last dose in data set [10] (400 mg of 0.5% cream on 16 cm^2, once daily for 5 days, 0.5% cream 400 mg once daily 5 days) turned out to be 4900 ± 800 ng/g; in [10] (400 mg of 1% cream on 16 cm^2, once daily for 5 days, 1% cream 400 mg once daily 5 days), 9300 ± 700 ng/g; in [10] (400 mg of 3% cream on 16 cm^2, once daily for 5 days, 3% cream 400 mg once daily 5 days), 31700 ± 3280 ng/g. Further, the concentration at 24 h came out at 7900 ± 1500 ng/g in data set [10] (500 mg of 0.3% cream on 16 cm^2, single dose 0.3% cream); 8900 ± 1400 ng/g in data set [10] (500 mg of 1% cream on 16 cm^2, single dose 1% cream); 119000 ± 7800 ng/g in data set [10] (500 mg of 10% cream on 16 cm^2, single dose 10% cream). For the same molecule, the inhibition at 30 µM in data set [11] was -4%; in data set [12] it was -2%.

The term inhibition denotes the relative decrease from the control value, in per cent.
